# Test results: patent publication US8022217B2, “Compounds suitable as modulators of HDL” (Cadila Healthcare Limited, priority 2006, dated 2011)
# pIC50: −log10 of the molar value. Counter-ions that a name gives are not always drawn.
# Biological target: T1, recombinant CETP (Homo sapiens, UniProt P11597)
# T1 sequence (P11597 18-493): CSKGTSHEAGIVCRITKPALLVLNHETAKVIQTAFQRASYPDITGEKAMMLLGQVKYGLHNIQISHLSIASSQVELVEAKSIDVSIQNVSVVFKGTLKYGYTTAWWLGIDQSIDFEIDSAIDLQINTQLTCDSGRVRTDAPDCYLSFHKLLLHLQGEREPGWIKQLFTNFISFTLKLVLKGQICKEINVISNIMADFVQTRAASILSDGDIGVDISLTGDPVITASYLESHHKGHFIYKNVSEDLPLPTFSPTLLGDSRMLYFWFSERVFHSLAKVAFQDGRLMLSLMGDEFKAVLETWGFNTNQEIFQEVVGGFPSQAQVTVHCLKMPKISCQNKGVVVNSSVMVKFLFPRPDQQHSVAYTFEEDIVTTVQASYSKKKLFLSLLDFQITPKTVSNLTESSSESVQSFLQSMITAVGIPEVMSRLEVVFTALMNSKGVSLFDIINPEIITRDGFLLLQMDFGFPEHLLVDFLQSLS
# Test: CETP in-vitro assay (Scintillation Proximity Assay, transfer of [3H] cholesteryl ester from HDL to biotinylated LDL)
# Format: biochemical
# Conditions: not given
# Experimental: This assay used a commercially available Scintillation Proximity Assay kit (Amersham TRKQ7015) with modifications for measuring CETP activity. [^3H] Cholesteryl ester HDL was mixed with non radioactive HDL prepared from human plasma at an appropriate ratio in order to ensure a proper transfer of cholesteryl esters. Transfer of [^3H] Cholesteryl esters from high density lipoprotein (HDL) to biotinylated low density lipoprotein (LDL) was measured following incubation of donor and acceptor particles in the presence of recombinant CETP. Following overnight incubation, the reaction was terminated and transfer was measured in a single step addition of streptavidin coated beads formulated in an assay terminal buffer. The rate of increase in signal was proportional to the transfer of [^3H] Cholesteryl ester by CETP.
row,% of CETP inhibition at 10 μmole concentration,SMILES
1,90%,"CC(C)(C)c1ccc(CN(CCc2ccc(Cl)c(Cl)c2)C(=O)c2cc(F)cc3c2NCCC3)cc1.Cl [Compound 50, 6-Fluoro-1,2,3,4-tetrahydro-quinoline-8-carboxylic acid (4-tert-butyl-benzyl)-[2-(3,4-dichloro-phenyl)-ethyl]-amide; hydrochloride salt]"

# Same assay, conditions: 10 μmole concentration
row,inhibition at 10 µM,SMILES
1,80%,"Cc1cc2c(c(C(=O)N(CCc3ccc(F)cc3)Cc3ccc(C(C)(C)C)cc3)c1)NCCC2 [Compound 13, 6-Methyl-1,2,3,4-tetrahydro-quinoline-8-carboxylic acid (4-tert-butyl-benzyl)-[2-(4-fluoro-phenyl)-ethyl]-amide]"
2,89%,"CC(C)(C)c1ccc(CN(CCc2ccc(F)c(F)c2)C(=O)c2cc(Cl)cc3c2NCCC3)cc1 [Compound 40, 6-Chloro-1,2,3,4-tetrahydro-quinoline-8-carboxylic acid (4-tert-butyl-benzyl)-[2-(3,4-difluoro-phenyl)-ethyl]-amide]"
3,79%,"CC(C)(C)c1ccc(CN(CCc2ccc(Cl)c(Cl)c2)C(=O)c2cccc3c2NCCC3)cc1 [Compound 48, 1,2,3,4-Tetrahydro-quinoline-8-carboxylic acid (4-tert-butyl-benzyl)-[2-(3,4-dichloro-phenyl)-ethyl]-amide; hydrochloride salt]"
4,85%,"CC(C)(C)c1ccc(CN(CCc2ccc(Cl)c(Cl)c2)C(=O)c2cc(Cl)cc3c2NCCC3)cc1 [Compound 35, 6-Chloro-1,2,3,4-tetrahydro-quinoline-8-carboxylic acid (4-tert-butyl-benzyl)-[2-(3,4-dichloro-phenyl)-ethyl]-amide]"
5,88%,"CC(C)(C)c1ccc(CN(CCc2ccc(Cl)c(F)c2)C(=O)c2cc(Cl)cc3c2NCCC3)cc1 [Compound 45, 6-Chloro-1,2,3,4-tetrahydro-quinoline-8-carboxylic acid (4-tert-butyl-benzyl)-[2-(4-chloro-3-fluoro-phenyl)-ethyl]-amide]"
6,83%,"Cc1ccc(CN(CCc2ccc(Cl)c(Cl)c2)C(=O)c2cccc3c2NCCC3)cc1 [Compound 29, 1,2,3,4-Tetrahydro-quinoline-8-carboxylic acid [2-(3,4-dichloro-phenyl)-ethyl]-(4-methyl-benzyl)-amide]"
7,82%,"Cc1cc2c(c(C(=O)N(CCc3ccc(Cl)c(Cl)c3)Cc3ccc(C(C)(C)C)cc3)c1)NCCC2 [Compound 31, 6-Methyl-1,2,3,4-tetrahydro-quinoline-8-carboxylic acid (4-tert-butyl-benzyl)-[2-(3,4-dichloro-phenyl)-ethyl]-amide]"
8,82%,"CC(C)(C)c1ccc(CN(CCc2ccc(Cl)c(Cl)c2)C(=O)c2cc(F)cc3c2NCCC3)cc1 [Compound 32, 6-Fluoro-1,2,3,4-tetrahydro-quinoline-8-carboxylic acid (4-tert-butyl-benzyl)-[2-(3,4-dichloro-phenyl)-ethyl]-amide]"

# The remaining lines, values behind:
row,SMILES,inhibition at 10 µM
1,"CC(C)(C)c1ccc(CN(CCc2ccccc2F)C(=O)c2cccc3c2NCCC3)cc1 [Compound 22, 1,2,3,4-Tetrahydro-quinoline-8-carboxylic acid (4-tert-butyl-benzyl)-[2-(2-fluoro-phenyl)-ethyl]-amide]",94%
2,"CC(C)(C)c1ccc(CN(CCc2cccc(Cl)c2)C(=O)c2cccc3c2NCCC3)cc1 [Compound 10, 1,2,3,4-Tetrahydro-quinoline-8-carboxylic acid (4-tert-butyl-benzyl)-[2-(3-chloro-phenyl)-ethyl]-amide]",57%
3,"CC(C)(C)c1ccc(CN(Cc2cccc(Cl)c2)C(=O)c2cccc3c2NCCC3)cc1 [Compound 21, 1,2,3,4-Tetrahydro-quinoline-8-carboxylic acid (4-tert-butyl-benzyl)-(3-chloro-benzyl)-amide]",77%
4,"COc1ccc(CCN(Cc2ccc(C(C)(C)C)cc2)C(=O)c2cccc3c2NCCC3)cc1OC [Compound 43, 1,2,3,4-Tetrahydro-quinoline-8-carboxylic acid (4-tert-butyl-benzyl)-[2-(3,4-dimethoxy-phenyl)-ethyl]-amide]",80%
5,"CC(C)(C)c1ccc(CN(CCc2ccc(F)cc2)C(=O)c2cccc3c2NCCC3)cc1 [Compound 1, 1,2,3,4-Tetrahydro-quinoline-8-carboxylic acid (4-tert-butyl-benzyl)-(2-(4-fluoro-phenyl)-ethyl)-amide]",43%
6,"CC(C)(C)c1ccc(CN(CCc2cccc3ccccc23)C(=O)c2cccc3c2NCCC3)cc1 [Compound 37, 1,2,3,4-Tetrahydro-quinoline-8-carboxylic acid (4-tert-butyl-benzyl)-(2-naphthalen-1-yl-ethyl)-amide]",86%
7,"CC(C)(C)c1ccc(CN(CCc2ccc(F)cc2)C(=O)c2ccc(Cl)c3c2NCCC3)cc1 [Compound 7, 5-Chloro-1,2,3,4-tetrahydro-quinoline-8-carboxylic acid (4-tert-butyl-benzyl)-[2-(4-fluoro-phenyl)-ethyl]-amide]",67%
8,"CCN(CC)c1ccc(CCN(Cc2ccc(C(C)(C)C)cc2)C(=O)c2cccc3c2NCCC3)cc1 [Compound 28, 1,2,3,4-Tetrahydro-quinoline-8-carboxylic acid (4-tert-butyl-benzyl)-[2-(4-diethylamino-phenyl)-ethyl]-amide]",80%
9,"CC(C)(C)c1ccc(CN(CCc2ccc3c(c2)OCO3)C(=O)c2cccc3c2NCCC3)cc1 [Compound 38, 1,2,3,4-Tetrahydro-quinoline-8-carboxylic acid (2-benzo[1,3]dioxol-5-yl-ethyl)-(4-tert-butyl-benzyl)-amide]",78%
10,"COc1ccc(CCN(Cc2ccc(C(C)(C)C)cc2)C(=O)c2cccc3c2NCCC3)cc1 [Compound 17, 1,2,3,4-Tetrahydro-quinoline-8-carboxylic acid (4-tert-butyl-benzyl)-[2-(4-methoxy-phenyl)-ethyl]-amide]",92%
11,"CC(C)(C)c1ccc(CN(CCc2ccc(F)cc2)C(=O)c2cc(F)cc3c2NCCC3)cc1 [Compound 24, 6-Fluoro-1,2,3,4-tetrahydro-quinoline-8-carboxylic acid (4-tert-butyl-benzyl)-[2-(4-fluoro-phenyl)-ethyl]-amide]",76%
12,"CC(C)(C)c1ccc(CN(CCc2ccc(O[Si](C)(C)C)cc2)C(=O)c2cccc3c2NCCC3)cc1 [Compound 47, 1,2,3,4-Tetrahydro-quinoline-8-carboxylic acid (4-tert-butyl-benzyl)-[2-(4-trimethylsilanyloxy-phenyl)-ethyl]-amide]",76%
13,"O=C(c1cccc2c1NCCC2)N(CCc1ccc(F)cc1)Cc1ccc(C(F)(F)F)cc1 [Compound 14, 1,2,3,4-Tetrahydro-quinoline-8-carboxylic acid [2-(4-fluoro-phenyl)-ethyl]-(4-trifluoromethyl-benzyl)-amide]",74%
14,"CC(C)(C)c1ccc(CN(CCc2ccc(O)cc2)C(=O)c2cccc3c2NCCC3)cc1 [Compound 42, 1,2,3,4-Tetrahydro-quinoline-8-carboxylic acid (4-tert-butyl-benzyl)-[2-(4-hydroxy-phenyl)-ethyl]-amide]",99%

# Biological target: T1, recombinant CETP
# Test: as above
# Format: biochemical
# Conditions: CETP inhibition in human plasma
row,pIC50,SMILES
1,6.34,"CC(C)(C)c1ccc(CN(CCc2ccccc2F)C(=O)c2cccc3c2NCCC3)cc1 [Compound 22, 1,2,3,4-Tetrahydro-quinoline-8-carboxylic acid (4-tert-butyl-benzyl)-[2-(2-fluoro-phenyl)-ethyl]-amide]"
2,7.52,"CC(C)(C)c1ccc(CN(CCc2ccc(Cl)c(Cl)c2)C(=O)c2cc(F)cc3c2NCCC3)cc1.Cl [Compound 50, 6-Fluoro-1,2,3,4-tetrahydro-quinoline-8-carboxylic acid (4-tert-butyl-benzyl)-[2-(3,4-dichloro-phenyl)-ethyl]-amide; hydrochloride salt]"
3,6.78,"CC(C)(C)c1ccc(CN(CCc2ccc(O[Si](C)(C)C)cc2)C(=O)c2cccc3c2NCCC3)cc1 [Compound 47, 1,2,3,4-Tetrahydro-quinoline-8-carboxylic acid (4-tert-butyl-benzyl)-[2-(4-trimethylsilanyloxy-phenyl)-ethyl]-amide]"
